Here are results for nine molecules from patent US9216999B2, “Substituted pyrrolo[2,3-h][1,6]naphthyridines and compositions thereof as JAK inhibitors” (priority 2011, dated 2015).

The term IC50 denotes the concentration needed to halve the response being measured. A higher IC50 goes with a need for much substance.

SMILES strings stand for the structures. Where a name gives a salt, the structure may show the parent alone.

Format in all cases: biochemical
Conditions in all cases: ATP 100 μM; Table^a 154

In one assay the target is JAK1 (Homo sapiens (Human), UniProt P23458). Nature of the assay: Enzyme assay (Assay Example^a 1), JAK1.
A further assay concerns the target JAK2 (Homo sapiens (Human), UniProt O60674). Nature of the assay: Enzyme assay (Assay Example^a 1), JAK2.
The next assay addresses JAK3 (Homo sapiens (Human), UniProt P52333). Put plainly: Enzyme assay (Assay Example^a 1), JAK3.
The target of another assay is Tyk2 (Homo sapiens (Human), UniProt P29597). Put plainly: Enzyme assay (Assay Example^a 1), Tyk2.
Tyk2, sequence (P29597 whole entry): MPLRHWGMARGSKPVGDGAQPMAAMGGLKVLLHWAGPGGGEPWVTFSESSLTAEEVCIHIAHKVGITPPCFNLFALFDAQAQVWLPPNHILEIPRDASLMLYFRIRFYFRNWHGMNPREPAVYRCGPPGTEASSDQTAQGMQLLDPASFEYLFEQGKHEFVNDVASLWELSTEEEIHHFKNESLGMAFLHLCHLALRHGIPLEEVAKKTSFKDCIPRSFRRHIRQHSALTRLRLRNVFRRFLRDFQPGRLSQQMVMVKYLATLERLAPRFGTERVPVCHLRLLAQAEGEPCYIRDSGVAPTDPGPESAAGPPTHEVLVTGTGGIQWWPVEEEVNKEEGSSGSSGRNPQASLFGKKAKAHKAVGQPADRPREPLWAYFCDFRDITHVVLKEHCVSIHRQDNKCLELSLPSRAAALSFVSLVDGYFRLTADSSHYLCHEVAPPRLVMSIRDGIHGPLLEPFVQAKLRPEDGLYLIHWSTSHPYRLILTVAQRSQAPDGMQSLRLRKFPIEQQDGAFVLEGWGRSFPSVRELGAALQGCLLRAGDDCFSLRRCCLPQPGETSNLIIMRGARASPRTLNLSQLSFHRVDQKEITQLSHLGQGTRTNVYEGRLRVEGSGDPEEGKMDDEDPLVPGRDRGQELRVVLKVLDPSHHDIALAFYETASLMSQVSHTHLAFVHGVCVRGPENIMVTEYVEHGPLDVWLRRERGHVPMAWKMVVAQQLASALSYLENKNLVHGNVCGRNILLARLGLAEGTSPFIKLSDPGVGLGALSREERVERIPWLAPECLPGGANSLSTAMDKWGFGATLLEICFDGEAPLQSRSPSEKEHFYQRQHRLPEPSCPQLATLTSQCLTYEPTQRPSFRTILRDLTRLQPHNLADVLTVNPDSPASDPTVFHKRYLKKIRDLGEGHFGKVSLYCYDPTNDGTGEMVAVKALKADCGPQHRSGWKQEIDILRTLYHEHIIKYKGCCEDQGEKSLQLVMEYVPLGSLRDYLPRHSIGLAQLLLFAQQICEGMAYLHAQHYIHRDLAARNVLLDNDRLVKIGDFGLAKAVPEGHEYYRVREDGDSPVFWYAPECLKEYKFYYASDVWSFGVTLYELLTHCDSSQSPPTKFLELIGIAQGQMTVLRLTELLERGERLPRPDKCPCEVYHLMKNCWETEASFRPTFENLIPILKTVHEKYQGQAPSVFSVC

JAK3, sequence (P52333 whole entry): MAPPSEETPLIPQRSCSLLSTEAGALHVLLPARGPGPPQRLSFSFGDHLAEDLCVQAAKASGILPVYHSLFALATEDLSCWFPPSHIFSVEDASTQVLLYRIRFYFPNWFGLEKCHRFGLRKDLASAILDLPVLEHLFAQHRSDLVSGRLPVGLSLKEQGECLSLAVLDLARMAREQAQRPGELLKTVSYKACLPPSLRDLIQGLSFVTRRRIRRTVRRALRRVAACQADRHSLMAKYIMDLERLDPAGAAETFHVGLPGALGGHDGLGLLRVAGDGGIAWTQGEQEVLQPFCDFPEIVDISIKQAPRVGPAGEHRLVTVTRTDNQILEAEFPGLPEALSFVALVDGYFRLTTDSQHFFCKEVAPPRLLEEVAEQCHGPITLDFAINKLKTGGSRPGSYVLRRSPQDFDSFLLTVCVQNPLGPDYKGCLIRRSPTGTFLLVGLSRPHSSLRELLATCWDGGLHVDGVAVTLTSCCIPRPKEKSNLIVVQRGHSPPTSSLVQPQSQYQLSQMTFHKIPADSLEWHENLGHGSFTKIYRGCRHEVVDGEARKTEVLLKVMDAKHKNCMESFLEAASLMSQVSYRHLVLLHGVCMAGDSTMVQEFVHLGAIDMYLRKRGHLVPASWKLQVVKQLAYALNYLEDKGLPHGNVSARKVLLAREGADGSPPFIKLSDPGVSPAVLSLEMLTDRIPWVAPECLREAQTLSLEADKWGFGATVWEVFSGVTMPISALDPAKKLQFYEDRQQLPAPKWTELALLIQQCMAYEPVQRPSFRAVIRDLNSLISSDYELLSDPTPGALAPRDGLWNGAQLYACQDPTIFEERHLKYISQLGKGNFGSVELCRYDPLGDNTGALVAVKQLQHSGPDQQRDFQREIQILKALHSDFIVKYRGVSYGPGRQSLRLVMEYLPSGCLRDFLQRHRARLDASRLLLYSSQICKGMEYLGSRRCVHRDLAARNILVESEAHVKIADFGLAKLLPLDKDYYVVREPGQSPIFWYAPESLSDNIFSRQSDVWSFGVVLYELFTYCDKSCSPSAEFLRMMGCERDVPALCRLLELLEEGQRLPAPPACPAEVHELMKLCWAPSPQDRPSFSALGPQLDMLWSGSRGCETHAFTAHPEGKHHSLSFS

For `CS(=O)(=O)c1ccc2c(c1)CCN2C[C@H]1CC[C@H](c2nnn3cnc4[nH]ccc4c23)CC1` [compound 189, 1-(trans-4-{[5-(methylsulfonyl)indolin-1-yl]methyl}cyclohexyl)-7H-pyrrolo[3,2-e][1,2,3]triazolo[1,5-c]pyrimidine], the half-maximal inhibitory concentration (IC50) at JAK1 was determined as 0.011 µM; at JAK2, 0.038 µM; against JAK3, 0.61 µM; on Tyk2, 0.38 µM.

Regarding `O=C1NCCN1CCNC[C@H]1CC[C@H](c2nnn3cnc4[nH]ccc4c23)CC1` [compound 191, 1-[2-({[trans-4-(7H-pyrrolo[3,2-e][1,2,3]triazolo[1,5-c]pyrimidin-1-yl)cyclohexyl]methyl}amino)ethyl]imidazolidin-2-one], the IC50 against JAK1 turned out to be 0.01 µM; against JAK2, 0.084 µM; against JAK3, 0.92 µM; against Tyk2, 0.18 µM.

In the case of `c1nc(CCNC[C@H]2CC[C@H](c3nnn4cnc5[nH]ccc5c34)CC2)c[nH]1` [compound 192, N-{[trans-4-(7H-pyrrolo[3,2-e][1,2,3]triazolo[1,5-c]pyrimidin-1-yl)cyclohexyl]methyl}-2-(1H-imidazol-4-yl)ethanamine hydrochloride], the IC50 came to 0.0039 µM against JAK1, 0.038 µM on JAK2, 0.32 µM at JAK3 and 0.1 µM against Tyk2.

On to `c1ccc(CNC[C@H]2CC[C@H](c3nnn4cnc5[nH]ccc5c34)CC2)cc1` [compound 193, 1-[trans-4-(7H-pyrrolo[3,2-e][1,2,3]triazolo[1,5-c]pyrimidin-1-yl)cyclohexyl]-N-benzylmethanamine], for which the IC50 against JAK1 was 0.0053 µM; on JAK2 it was 0.041 µM; against JAK3, 0.28 µM; against Tyk2, 0.0055 µM.

As for `Clc1ccc(NC2CCC(c3nnn4cnc5[nH]ccc5c34)CC2)cc1` (stereo not drawn) [compound 205, N-[4-(7H-Pyrrolo[3,2-e]r[1,2,3]triazolo[1,5-c]pyrimidin-1-yl)cyclohexyl]-4-chloroaniline], the IC50 on JAK1 was 0.026 µM; against JAK2, 0.25 µM; on JAK3 it was greater than 1 µM; against Tyk2, 0.75 µM.

`O=C(Nc1ccc(F)cc1)[C@H]1CC[C@H](c2nnn3cnc4[nH]ccc4c23)CC1` [compound 206, trans-N-(4-Fluorophenyl)-4-(7H-pyrrolo[3,2-e][1,2,3]triazolo[1,5-c]pyrimidin-1-yl)cyclohexanecarboxamide]: the IC50 on JAK1 is 0.27 µM; against JAK2, greater than 1 µM; against JAK3, greater than 1 µM; at Tyk2 it was greater than 1 µM.

Take `O=C(NCc1ccc(F)cc1)[C@H]1CC[C@H](c2nnn3cnc4[nH]ccc4c23)CC1` [compound 207, trans-N-(4-fluorobenzyl)-4-(7H-pyrrolo[3,2-e][1,2,3]triazolo[1,5-c]pyrimidin-1-yl)cyclohexanecarboxamide]: the IC50 at JAK1 was 0.009 µM; at JAK2 it was 0.055 µM; on JAK3, greater than 1 µM; against Tyk2 it was greater than 1 µM.

On to `O=C(NCCc1ccc(F)cc1)[C@H]1CC[C@H](c2nnn3cnc4[nH]ccc4c23)CC1` [compound 208, trans-N-(4-fluorophenethyl)-4-(7H-pyrrolo[3,2-e][1,2,3]triazolo[1,5-c]pyrimidin-1-yl)cyclohexanecarboxamide], for which the IC50 against JAK1 is 0.0028 µM; against JAK2, 0.033 µM; against JAK3, 0.36 µM; against Tyk2, 0.37 µM.

Regarding `O=C([C@H]1CC[C@H](c2nnn3cnc4[nH]ccc4c23)CC1)N1CC[C@H](F)C1` [compound 209, [trans-4-(7H-pyrrolo[3,2-e][1,2,3]triazolo[1,5-c]pyrimidin-1-yl)cyclohexyl][(S)-3-fluoropyrrolidin-1-yl]methanone], the IC50 is 0.061 µM against JAK1, 0.42 µM against JAK2, greater than 1 µM on JAK3 and greater than 1 µM at Tyk2.
